Experimental data published in patent US6951881B2, “(1-substituted-indol-3-yl) alkylidenehydrazinecarboximidamide derivatives as 5-hydroxytryptamine-6 ligands” (Wyeth, priority 2002, dated 2005).

What follows are compounds tested against T1, human cloned 5-HT6 receptors (Homo sapiens, UniProt P50406). Conditions: not given.
T1 construct: expressed in transfected cells; host or cells: HeLa cells
Type: binding
Method: This operation is repeated.
The reaction is allowed to proceed in the dark for 120 min at room temperature, at which time, the bound ligand-receptor complex is filtered off on a 96 well unifilter with a Packard Filtermate® 196 Harvester. The bound complex caught on the filter disk is allowed to air dry and the radioactivity is measured in a Packard TopCount® equipped with six photomultiplier detectors, after the addition of 40.0 μl Microscint®-20 scintillant to each shallow well. The unifilter plate is heat-sealed and counted in a PackardTopCount® with a tritium efficiency of 31.0%.
Specific binding to the 5-HT6 receptor is defined as the total radioactivity bound less the amount bound in the presence of 10.0 μM unlabeled methiothepin. Binding in the presence of varying concentrations of test compound is expressed as a percentage of specific binding in the absence of test compound. The results are plotted as logit % bound versus log concentration of test compound. Nonlinear regression analysis of data points with a computer assisted program Prism® yields both the IC50 and the Ki values of test compounds with 95% confidence limits.
The amount of displacement by the test compound is given in percent (%) inhibition and is derived from the following equation: [formula] where B0 is the amount of CPM bound in the presence of the testing agent. NSB represents the CPM bound in the presence of a saturating concentration of a displacer and TB represents the total amount of CPM bound at zero (0) concentration of test compound.
Alternatively, a linear regression line of decline of data points is plotted, from which the IC50 value can be read off and the Ki value determined by solving the following equation: [formula] where L is the concentration of the radioactive ligand used and KD is the dissociation constant of the ligand for the receptor, both expressed in nM.

T1 sequence (P50406 whole entry): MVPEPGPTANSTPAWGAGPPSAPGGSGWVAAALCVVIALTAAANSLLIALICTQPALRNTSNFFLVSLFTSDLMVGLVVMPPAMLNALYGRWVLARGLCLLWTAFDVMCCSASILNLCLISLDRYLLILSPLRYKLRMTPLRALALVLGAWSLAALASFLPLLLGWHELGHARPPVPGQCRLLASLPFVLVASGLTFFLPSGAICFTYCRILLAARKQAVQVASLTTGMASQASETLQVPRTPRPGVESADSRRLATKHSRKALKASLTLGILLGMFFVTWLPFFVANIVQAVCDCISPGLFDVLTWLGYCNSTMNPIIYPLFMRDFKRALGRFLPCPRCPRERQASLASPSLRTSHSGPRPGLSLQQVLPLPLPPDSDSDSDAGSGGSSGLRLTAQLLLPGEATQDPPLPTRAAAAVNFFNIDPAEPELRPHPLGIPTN

Structure (SMILES) | inhibition at 0.1 µM
C/C(=N\NC(=N)N)c1c(-c2ccc(Cl)cc2Cl)[nH]c2ccc(Cl)cc12 [Example 127, 2-{[5-Chloro-2-(2,4-dichlorophenyl)-1H-indol-3-yl]ethylidene}hydrazinecarboximidamide] | 50.6%
C/C(=N\NC(=N)N)c1c(-c2ccc(Cl)cc2Cl)n(C)c2ccc(Cl)cc12 [Example 128, 2-{[5-Chloro-2-(2,4-dichlorophenyl)-1-methyl-1H-indol-3-yl]ethylidene}hydrazinecarboximidamide] | 57.3%

Same assay, conditions: test compound dose 100 nM; displacement of [3H]-LSD

Structure (SMILES) | % Inhibition
CC(=NNC(=N)N)c1c(-c2ccc(-c3ccccc3)cc2)[nH]c2ccc(Cl)cc12 [Example 141, 2-[(2-biphenyl-5-chloro-1H-indol-3-yl)-ethylidene]hydrazinecarboximidamide] | 33.6%
CC(=NNC(=N)N)c1c(-c2ccc(-c3ccccc3)cc2)n(C)c2ccc(Cl)cc12 [Example 143, 2-[(2-biphenyl-5-chloro-1-methyl-1H-indol-3-yl)-ethylidene]hydrazinecarboximidamide] | 34.6%

Same assay, conditions: test compound dose 100 nM; displacement of [3H]-LSD; read-out: % Inhibition

Structure (SMILES) | inhibition at 0.1 µM
C/C(=N\NC(=N)N)c1c(-c2sccc2C)[nH]c2ccccc12 [Example 133, 2-{[2-(2-(3-methyl-thienyl))-1H-indol-3-yl]-ethylidene}hydrazinecarboximidamide] | 63.2%
C/C(=N\NC(=N)N)c1c(-c2sccc2C)n(C)c2ccccc12 [Example 146, 2-{[1-methyl-2-(2-(3-methyl-thienyl))-1H-indol-3-yl]-ethylidene}hydrazinecarboximidamide] | 46.1%

Same assay, conditions: test compound dose 1000 nM; displacement of [3H]-LSD

Structure (SMILES) | inhibition at 1 µM | % Inhibition
CC(=NNC(=N)N)c1c(-c2ccc(Cl)cc2)n(Cc2csc(C)n2)c2ccccc12 [Example 100, 2-(1-{2-(4-chlorophenyl)-1-[(2-methyl-1,3-thiazol-4-yl)methyl]-1H-indol-3-yl}ethylidene)-1hydrazinecarboximidamide] | 31.5% | –
Cc1nc(Cn2c(-c3ccc(Cl)cc3)c(C=NNC(=N)N)c3ccccc32)cs1 [Example 101, 2-({2-(4-chlorophenyl)-1-[(2-methyl-1,3-thiazol-4-yl)methyl]-1H-indol-3-yl}methylidene)-1hydrazinecarboximidamide] | 24% | –
Cc1nc(Cn2c(-c3ccc(Cl)cc3)c(C=CNNC3=NCCN3)c3ccccc32)cs1 [Example 102, {[2-(4-chlorophenyl)-1((2-methyl-thiazol-4-yl)methyl)-1H-indol-3-yl]methylene}-N′-(4,5-dihydro-1H-imidazol-2-yl)-N-methylhydrazine] | 62.7% | –
CCn1c(-c2ccc(Cl)cc2)c(C=NNC(=N)N)c2ccccc21 [Example 103, 2-{[2-(4-chloro-phenyl)-1-ethyl-1H-indol-3-yl]-methylene}hydrazinecarboximidamide] | 80.1% | –
CCn1c(-c2ccc(Cl)cc2)c(C=NN(C)C2=NCCN2)c2ccccc21 [Example 104, N-{[2-(4-chloro-phenyl)-1-ethyl-1H-indol-3-yl]-methylene}-N′-(4,5-dihydro-1H-imidazol-2-yl)-N-methylhydrazine] | – | 100.0%
CC(=NNC(=N)N)c1c(-c2ccc(Cl)cc2)n(CCC#N)c2ccccc12 [Example 107, 2-{1-[2-(4-chloro-phenyl)-1-(2-cyano-ethyl)-1H-indol-3-yl]-ethylidene}hydrazinecarboximidamide] | 87.2% | –
N#CCCn1c(-c2ccc(Cl)cc2)c(C=NNC(=N)N)c2ccccc21 [Example 108, 2-{[2-(4-chloro-phenyl)-1-(2-cyano-ethyl)-1H-indol-3-yl]-methylene}hydrazinecarboximidamide] | 92% | –
CN(N=Cc1c(-c2ccc(Cl)cc2)n(CCC#N)c2ccccc12)C1=NCCN1 [Example 109, N-{[2-(4-chloro-phenyl)-1-(2-cyano-ethyl)-1H-indol-3-yl]-methylene}-N′-(4,5-dihydro-1H-imidazol-2-yl)-N-methylhydrazine] | – | 99.1%
N=C(N)NN=Cc1c(-c2ccc(Cl)cc2)n(CCc2ccccc2)c2ccccc12 [Example 110, 2-{[2-(4-chloro-phenyl)-1-(2-phenethyl)-1H-indol-3-yl]-methylene}hydrazinecarboximidamide] | – | 20.9%
CN(N=Cc1c(-c2ccc(Cl)cc2)n(CCc2ccccc2)c2ccccc12)C1=NCCN1 [Example 111, N-{[2-(4-chloro-phenyl)-1-(2-phenethyl)-1H-indol-3-yl]-methylene}-N′-(4,5-dihydro-1H-imidazol-2-yl)-N-methylhydrazine] | – | 37.5%
C=CCCn1c(-c2ccc(Cl)cc2)c(C=NN(C)C2=NCCN2)c2ccccc21 [Example 112, N-{[1-(3-butenyl)-2-(4-chloro-phenyl)-1H-indol-3-yl]-methylene}-N′-(4,5-dihydro-1H-imidazol-2-yl)-N-methylhydrazine] | – | 85.1%
N=C(NCCO)NN=Cc1c(-c2ccc(Cl)cc2)[nH]c2ccccc12 [Example 113, 2-{[2-(4-chlorophenyl)-1H-indol-3-yl]methylidene}-N-(2-hydroxyethyl)-1hydrazinecarboximidamide] | 84.1% | –
CN=C(NCCO)NN=Cc1c(-c2ccc(Cl)cc2)[nH]c2ccccc12 [Example 114, 2-{[2-(4-chlorophenyl)-1H-indol-3-yl]methylidene}-N-(2-hydroxyethyl)-N′-methyl-1hydrazinecarboximidamide] | 31.6% | –
N=C(NN=Cc1c(-c2ccc(Cl)cc2)[nH]c2ccccc12)NC1CCCC1 [Example 115, 2-{[2-(4-chlorophenyl)-1H-indol-3-yl]methylidene}-N-cyclopentyl-1hydrazinecarboximidamide] | 49.5% | –
CN=C(NN=Cc1c(-c2ccc(Cl)cc2)[nH]c2ccccc12)NC1CCCC1 [Example 116, 2-{[2-(4-chlorophenyl)-1H-indol-3-yl]methylidene}-N-cyclopentyl-N′-methyl-1hydrazinecarboximidamide] | 59.5% | –
N=C(NCc1ccccc1)NN=Cc1c(-c2ccc(Cl)cc2)[nH]c2ccccc12 [Example 117, 2-{[2-(4-chlorophenyl)-1H-indol-3-yl]methylidene}-N-benzyl-1hydrazinecarboximidamide] | 69% | –
CN=C(NCc1ccccc1)NN=Cc1c(-c2ccc(Cl)cc2)[nH]c2ccccc12 [Example 118, 2-{[2-(4-chlorophenyl)-1H-indol-3-yl]methylidene}-N-benzyl-N′-methyl-1hydrazinecarboximidamide] | 56.2% | –
CCCNC(=N)NN=Cc1c(-c2ccc(Cl)cc2)[nH]c2ccccc12 [Example 119, 2-{[2-(4-chlorophenyl)-1H-indol-3-yl]methylidene}-N-propyl-1hydrazinecarboximidamide] | 86% | –
CCCNC(=NC)NN=Cc1c(-c2ccc(Cl)cc2)[nH]c2ccccc12 [Example 120, 2-{[2-(4-chlorophenyl)-1H-indol-3-yl]methylidene}-N′-methyl-N-propyl-1hydrazinecarboximidamide] | 49.9% | –
CNC(=N)NN=Cc1c(-c2ccc(Cl)cc2)[nH]c2ccccc12 [Example 121, 2-{[2-(4-chlorophenyl)-1H-indol-3-yl]methylidene}-N-methyl-1hydrazinecarboximidamide] | 90.5% | –
CN=C(NC)NN=Cc1c(-c2ccc(Cl)cc2)[nH]c2ccccc12 [Example 122, 2-{[2-(4-chlorophenyl)-1H-indol-3-yl]methylidene}-N,N′-dimethyl-1hydrazinecarboximidamide] | 38.4% | –
CCCCCNC(=N)NN=Cc1c(-c2ccc(Cl)cc2)[nH]c2ccccc12 [Example 123, 2-{[2-(4-chlorophenyl)-1H-indol-3-yl]methylidene}-N-pentyl-1hydrazinecarboximidamide] | 70.4% | –
CCCCCNC(=NC)NN=Cc1c(-c2ccc(Cl)cc2)[nH]c2ccccc12 [Example 124, 2-{[2-(4-chlorophenyl)-1H-indol-3-yl]methylidene}-N′-methyl-N-pentyl-1hydrazinecarboximidamide] | 74% | –
N=C(N)N/N=C1\CCCc2[nH]c3ccc(Cl)cc3c21 [Example 152, 2-(6-Chloro-1,2,3,9-tetrahydro-4H-carbazol-4-ylidene)hydrazine-carboximidamide] | 99.1% | –
Clc1ccc2[nH]c3c(c2c1)C(=NNC1=NCCN1)CCC3 [Example 153, 6-chloro-1,2,3,9-tetrahydro-4H-carbazol-4-one 4,5-dihydro-1H-imidazol-2-ylhydrazone] | 97% | –
CN(N=C1CCCc2[nH]c3ccc(Cl)cc3c21)C1=NCCN1 [Example 154, 6-chloro-1,2,3,9-tetrahydro-4H-carbazol-4-one 4,5-dihydro-1H-imidazol-2-yl(methyl)hydrazone] | 87.1% | –
N=C(N)NN=C1CCCc2[nH]c3ccc(F)cc3c21 [Example 156, 2-(6-fluoro-1,2,3,9-tetrahydro-4H-carbazol-4-ylidene)hydrazinecarboximidamide] | 98.8% | –
